Results on four compounds are retold here after PubChem BioAssay (NCI).

Among the test systems are OVCAR-5 ovarian; BT-549 breast; ACHN renal; SF-268 CNS; HCT-116 colon; SK-MEL-28 melanoma; U251 CNS; NCI-H226 lung; OVCAR-8 ovarian; IGROV1 ovarian.
What all share (assay): inhibition of tumour cell growth, NCI panel, 48 h

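Cultured in 96-well plates, cells were exposed to test compound for 48 hours across five concentrations. Definition used: TGI = concentration required for complete inhibition of growth.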 Bounds are passed on as bounds.

For `Cc1sc(/N=C/c2c[nH]c3ccccc23)c(C#N)c1C`, the TGI in the assay on OVCAR-5 ovarian, in the assay on BT-549 breast, with ACHN renal, in the assay with SF-268 CNS, in the assay with HCT-116 colon and in the assay on SK-MEL-28 melanoma was over 100 µM each time. The TGI in the assay with U251 CNS is 96.4 µM; in the assay with NCI-H226 lung it was over 100 µM; in the assay on OVCAR-8 ovarian, over 100 µM; with IGROV1 ovarian, over 100 µM.
Consider `C=CCSC1=N/C(=C\c2ccccc2)C(=O)N1CC=C`, for which the TGI with OVCAR-5 ovarian is over 100 µM; in the assay with BT-549 breast, over 100 µM; in the assay on ACHN renal, over 100 µM; in the assay with SF-268 CNS it was over 57.7 µM; in the assay on HCT-116 colon it was over 100 µM; with SK-MEL-28 melanoma, over 100 µM. The TGI with U251 CNS, in the assay on NCI-H226 lung, in the assay on OVCAR-8 ovarian and in the assay with IGROV1 ovarian was over 100 µM in each case.
Take `O=C(c1ccccc1)c1ccc2nc(-c3c(Cl)c(Cl)c(Cl)c(Cl)c3C(=O)N/N=C/c3ccccc3)[nH]c2c1`: the TGI in the assay on OVCAR-5 ovarian was over 100 µM; in the assay with BT-549 breast it was over 100 µM; in the assay on ACHN renal, 49.2 µM; in the assay on SF-268 CNS, over 100 µM; with HCT-116 colon it was over 100 µM; in the assay on SK-MEL-28 melanoma it was over 100 µM. Moreover, the TGI was over 100 µM with U251 CNS, 79.8 µM with NCI-H226 lung, over 100 µM with OVCAR-8 ovarian and over 100 µM in the assay on IGROV1 ovarian.
Take `Cc1nc2ccc(S(=O)(=O)O)cc2c(=O)n1-c1ccc(C(=O)NN2C(=O)C(Cl)C2c2ccccc2O)cc1` (stereo not given): the TGI in the assay on OVCAR-5 ovarian, in the assay with BT-549 breast, in the assay on ACHN renal, in the assay on SF-268 CNS, in the assay with HCT-116 colon and in the assay on SK-MEL-28 melanoma was over 100 µM each time. The TGI in the assay with U251 CNS, in the assay with NCI-H226 lung, in the assay on OVCAR-8 ovarian and in the assay on IGROV1 ovarian was over 100 µM in each case.
